From patent publication US8765783B2, “Pharmaceutical composition for treatment of disease due to vascular constriction or vasodilation” (Ono Pharmaceuticals Co., Ltd., priority 2002, dated 2014) come the findings set out here.

One assay has as its system removed rat heart. Put plainly: Removed rat heart (Langendorff heart). To be noted: Langendorff heart mode. From the text:
Rat (CD(SD)IGS, male, Charles River Japan Inc., 8 weeks old-10 weeks old, 300-450 g) was anesthetized by diethylether, opened the abdominal cavity, injected intravenously with heparin and then, exsanguinated to death. The heart was quickly removed by opening the chest cavity and the removed heart was immersed into cooled Krebs-Henseleit solution. The tissues were trimmed away under the cooling, aortic arches were inserted into the heart functional measuring equipment and fixed with sutures without leaking out. The rat heart function was measured using the heart functional measuring equipment (model IPH-W2, Labo-support). The equipment was used in the Langendorff Heart mode (non-working heart mode) and load was 68-70 mmHg. […] Catheter filled with physiological saline was inserted into the left ventricle, the catheter was connected to the piezotransducer (DX-100, Nihon Kohden) and the left ventricle pressure (LVP) was measured through strain compression amplifier (AP-601G, Nihon Kohden). Heart rate was calculated using LVP data with the heart rate measuring equipment (AT-601G, Nihon Kohden) and dLVP/dt was calculated with differential processor (EQ-641G, Nihon Kohden). Probes of electromagnetic flowmeter (model FF-020T, inside diameter 2 mm, Nihon Kohden) were set on the way to the passage of nutrient solution and the flow rate of nutrient solution (corresponding the blood flow rate of coronary artery) was measured using electromagnetic flowmeter (MFV-3100, Nihon Kohden). Administration of S1P and the compounds was performed by injection of dilution with nutrient solution into the passage of nutrient solution using infusion pump. The injection rate of drug solution was set as the flow rate of nutrient solution before starting of administration. […] Using the above mentioned model, effect of EDG-5 antagonist on heart function was examined. […] EDG-5 antagonist, the compound (1), the compound (2) and the compound (3) increased the flow rate of nutrient solution. In addition, they increased contractive force of heart muscle at the same time. […] It was considered that S1P had no direct chronotropic action and inotropic action on pacemaker and heart muscle and S1P had lowering effect on heart function by contracting the coronary blood vessels and ischemia.

Assay [1] has as its system rat removed basilar artery. In words: Vasoconstrictor action of rat removed basilar artery. To be noted: 3 μM (FIG. 3, FIG. 4). The procedure: Basilar arteries were removed from male rat (CD(SD)IGS, male, Charles River Japan, Inc., 8 weeks old-10 weeks old, 350-450 g) and quickly immersed in cooled Krebs-Henseleit solution. Removed basilar arteries were divided by about 3 mm width with ophthalmic scissors and made as ringed samples. Samples hung in micro tissue organ bath (MTOB-1: Preimetech Corp.) filled with Krebs-Henseleit solution (37° C.). They were loaded with about 0.2 g resting tension stabilized for about 60 minutes, and then constrictive movement was recorded on a recorder (linearcoda WR3320: Graphtec Corp.) through strain compression amplifier (AP-601G, Nihon Kohden) from micro tissue organ bath.

The test system of a further assay is SHR rat. In words: Blood pressure of SHR rat. The following applies: 1 mg/kg, 3 mg/kg and 10 mg/kg, i.v.; SHR rat under the awakening. Format: in vivo. From the text:
Rat (SHR/Crj, male, Charles River Japan Inc., 12 weeks old-13 weeks old) was anesthetized by ether, and then rat was fixed in the dorsal position on the laboratory table. Cannula filled with physiologic saline containing heparin was inserted into the femoral artery and cannula filled with physiologic saline was inserted into the femoral vein, respectively. After finish of the operation, rat was fixed in the ballmancage and left at rest until the awakening. The artery cannula was connected to the piezotransducer (DX-100, Nihon Kohden) and the blood pressure was measured through strain compression amplifier(AP-601G, Nihon Kohden). After about 30 minutes from confirming awakening of rat, the blood pressure was measured for additional 30 minutes and then, the compound (3) (1 mg/kg, 3 mg/kg, and 10 mg/kg, i.v.) or vehicle (10% DMSO/plasma) was administered intravenously. After administration, blood pressure was measured for more than 30 minutes. […] In contrast, the compound (3) had little effect on the heart rate.

The subject of the next assay is rat basilar artery. Put plainly: Vasoconstrictor action of rat basilar artery induced by S1P into cisterna (in vivo). The following applies: 10 μg/100 μL/rat, i.c., 30 minutes after S1P into cisterna. An excerpt:
Rat (CD(SD)IGS, male, Charles River Japan Inc., 11 weeks old-13 weeks old, 400-550 g) was anesthetized by injection of urethane (1.2 g/kg, s.c.), incised scalp of occipital for administration of S1P into cisterna and then fixed to dorsal position. Rat was inserted into trachea with catheter and then, cut down with esophagus, and skull at the base of brain was exposed. Under the stereomicroscope, craniotomy was carefully operated with electric drill and scorper forceps. We made basilar artery expose, and it was done in the condition which arachnoid was left, and coating on basilar artery was exfoliated, and could be observed. Observation and image capture of basilar artery were performed using the stereomicroscope (Olympus Optics Inc., SZH-10) and charge-coupled device (CCD) camera (FUJIFILM, HC-2500) connected with it. Macscope (MITANI Corp.) was used as an Image capture software. […] Diameter of basilar artery was measured by selecting from an area having no branch in the center of basilar artery. The diameter was calculated by comparing with the length of micrometer (0.2 mm, 0.01 mm scale) shooted in the same condition. […] The calculation of percentage of basilar artery diameter was calculated by dividing diameter after the S1P administration by a pre-value. […]

In assay [2] the test system is removed rabbit coronary artery. Put plainly: Vasoconstrictor action of removed rabbit coronary artery. To be noted: removed rabbit coronary artery ring. The procedure:
The heart was removed from Male rabbit (NZ White, a bout 2 kg) under anesthesia and immersed into cooled Krebs-Henseleit solution. After that, coronary artery was cut out, heart muscle and fat tissue connected around the heart were removed and ringed samples were made. Samples hung in micro tissue organ bath (MTOB-1: Preimetech Corp.) filled with Krebs-Henseleit solution (37° C.) or magnus tube, they were loaded with about 0.2 g-0.5 g resting tension stabilized for about 60 minutes, and then constrictive movement was recorded on a recorder (linearcoda WR3320: Graphtec Corp.) through strain compression amplifier (AP-601G, Nihon Kohden).

Each structure is given as a SMILES string. “Also recorded” adds a separate entry of the source.

With `Cc1nn(C)c2nc(NNC(=O)Nc3cc(Cl)nc(Cl)c3)cc(C(C)C)c12` [compound (3), N-(2,6-dichloro-4-piridinyl)-2-(4-isopropyl-1,3-dimethyl-1H-pyrazolo[3,4-b]pyridin-6-yl)hydrazinecarboxamide], the “flow rate of nutrient solution (corresponding the blood flow rate of coronary artery)” value with removed rat heart is on record as “increased”. Also, in the assay on removed rat heart (EDG-5 antagonist), the “contractive force of heart muscle” value was “increased”. Moreover, the “inhibitory effect on vasoconstrictor action of rat removed basilar artery by S1P” value in assay [1] is given as “inhibitory effect; also recorded: suppression”. Also, in the assay on SHR rat, the “antihypertensive effect on SHR rat blood pressure” value is given as “antihypertensive effect”. Further, in the assay with rat basilar artery, the “inhibition of vasoconstrictor action of rat basilar artery by S1P (basilar artery diameter)” value is “inhibited; also recorded: suppression”. The “inhibitory activity on constriction of rabbit coronary artery by S1P” value in assay [2] is given as “inhibitory activity”.
